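Compound exposure: 48 hours, 5 concentrations, 96-well plates. GI50 marks 50% less growth.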 The source made the active and inactive calls. Cut-off read from the data, not from the text of the source: active = GI50 up to about 1.1 µM and inactive = higher.
What was measured:
Experiment in all cases: DTP human tumour cell line panel, 48 h
HCT-116 = system: HCT-116
NCI/ADR-RES = system: NCI/ADR-RES
OVCAR-3 = system: OVCAR-3
BT-549 = system: BT-549
MDA-MB-435 = system: MDA-MB-435
SNB-75 = system: SNB-75
COLO 205 = system: COLO 205
MOLT-4 = system: MOLT-4
ACHN = system: ACHN
HCC 2998 = system: HCC 2998
Malme-3M = system: Malme-3M
RPMI-8226 = system: RPMI-8226
CCRF-CEM = system: CCRF-CEM
A498 = system: A498
K562 = system: K562
DU-145 = system: DU-145
OVCAR-8 = system: OVCAR-8
RXF 393 = system: RXF 393
SF-268 = system: SF-268

Measured: GI50

O=C(O)CCCSc1nc2ccccc2s1
inactive: HCT-116 > 100 µM | NCI/ADR-RES > 100 µM | OVCAR-3 > 100 µM | BT-549 > 100 µM | MDA-MB-435 > 100 µM | SNB-75 > 100 µM | COLO 205 > 100 µM | MOLT-4 > 100 µM | ACHN > 100 µM | HCC 2998 > 100 µM | Malme-3M > 100 µM | RPMI-8226 > 100 µM | CCRF-CEM > 100 µM | A498 > 100 µM | K562 > 100 µM | DU-145 > 100 µM | OVCAR-8 > 100 µM | RXF 393 > 100 µM | SF-268 > 100 µM

COc1ccccc1/C(=N\OCCC(=O)O)c1cccs1
inactive: HCT-116 > 100 µM | NCI/ADR-RES > 100 µM | OVCAR-3 > 100 µM | BT-549 > 100 µM | MDA-MB-435 > 100 µM | SNB-75 > 100 µM | COLO 205 > 100 µM | MOLT-4 > 100 µM | ACHN > 100 µM | HCC 2998 > 100 µM | Malme-3M > 100 µM | RPMI-8226 > 100 µM | CCRF-CEM > 100 µM | A498 > 100 µM | K562 > 100 µM | DU-145 > 100 µM | OVCAR-8 > 100 µM | RXF 393 > 100 µM | SF-268 > 100 µM

CCN(CC)CCOC(c1cc(OC)ccc1OC)c1ccc2n1-c1ccccc1OC2 (stereo not given)
inactive: HCT-116 12.6 µM | NCI/ADR-RES 2.57 µM | OVCAR-3 15.7 µM | BT-549 12.7 µM | MDA-MB-435 10.5 µM | SNB-75 2.31 µM | COLO 205 5.42 µM | ACHN 13.8 µM | HCC 2998 5.31 µM | Malme-3M 18.5 µM | RPMI-8226 3.44 µM | CCRF-CEM 3.25 µM | A498 11.8 µM | K562 7.23 µM | DU-145 22.9 µM | OVCAR-8 13.2 µM | RXF 393 8.91 µM | SF-268 14.5 µM

O=C(c1ccc(O)c([N+](=O)[O-])c1)c1ccc(O)c([N+](=O)[O-])c1
inactive: HCT-116 > 100 µM | NCI/ADR-RES 43.6 µM | OVCAR-3 > 100 µM | BT-549 33 µM | MDA-MB-435 20.8 µM | SNB-75 28.7 µM | COLO 205 > 100 µM | ACHN > 100 µM | HCC 2998 > 100 µM | Malme-3M 37 µM | RPMI-8226 3.33 µM | CCRF-CEM 31.9 µM | A498 > 100 µM | K562 50.1 µM | DU-145 > 100 µM | OVCAR-8 > 100 µM | RXF 393 > 100 µM | SF-268 > 100 µM

CCOC(=O)c1cc(NC(=O)N(CCC#N)CCN(C(=O)N[C@@H](Cc2ccccc2)C(=O)N[C@@H](CC(C)C)C(=O)NC)c2ccccc2)ccc1OC
inactive: HCT-116 42.4 µM | NCI/ADR-RES > 100 µM | OVCAR-3 40.9 µM | BT-549 30.9 µM | MDA-MB-435 30.9 µM | SNB-75 45 µM | COLO 205 > 100 µM | MOLT-4 23.4 µM | ACHN 25.3 µM | HCC 2998 35.1 µM | Malme-3M 29.4 µM | RPMI-8226 16.3 µM | CCRF-CEM 89.9 µM | A498 63.7 µM | DU-145 44.6 µM | OVCAR-8 84.9 µM | RXF 393 23.1 µM | SF-268 48.5 µM

C=C(Cl)C(=C)CCC(Cl)C(C)(C)Cl (stereo not given)
inactive: HCT-116 > 100 µM | NCI/ADR-RES > 100 µM | OVCAR-3 > 100 µM | BT-549 > 100 µM | MDA-MB-435 > 100 µM | SNB-75 > 100 µM | COLO 205 > 100 µM | MOLT-4 > 100 µM | ACHN > 100 µM | HCC 2998 > 100 µM | Malme-3M > 100 µM | RPMI-8226 > 100 µM | CCRF-CEM > 100 µM | A498 > 100 µM | K562 > 100 µM | DU-145 > 100 µM | RXF 393 > 100 µM | SF-268 > 100 µM

Source: ChEMBL document CHEMBL1201862, “PubChem BioAssay data set” (2004)
